Reference: ChEMBL document CHEMBL3351479, “Novel acylureidoindolin-2-one derivatives as dual Aurora B/FLT3 inhibitors for the treatment of acute myeloid leukemia” (Eur J Med Chem, 2014)

Tests used:
Format in all cases: functional, cell-based
MV4-11 = experiment: Cytotoxicity against human MV4-11 cells assessed as cell viability after 48 hrs by MTT assay; conditions: Homo sapiens, MV4-11, 48 h
MOLM-13 = experiment: Cytotoxicity against human MOLM13 cells assessed as cell viability after 48 hrs by MTT assay; conditions: MOLM-13, 48 h
[1] = Cytotoxicity against human HL60 cells assessed as cell viability after 48 hrs by MTT assay; conditions: HL-60, 48 h
THP-1 = experiment: Cytotoxicity against human THP1 cells assessed as cell viability after 48 hrs by MTT assay; conditions: Homo sapiens, THP-1, 48 h

Structure (SMILES) | IC50 (MV4-11) [nM] | IC50 (MOLM-13) [nM] | IC50 [1] [nM] | IC50 (THP-1) [nM]
COc1ccc(C(=O)NC(=O)Nc2ccc3c(c2)NC(=O)/C3=C\c2[nH]c(C)cc2C)cc1 | 62.8 | 42.8 | 45.8 | 116
COc1ccc(C(=O)NC(=O)Nc2ccc3c(c2)NC(=O)/C3=C\c2[nH]c(C)c(CCC(=O)O)c2C)c(F)c1 | 6.1 | 4 | 16.7 | 61.3
COc1ccc(C(=O)NC(=O)Nc2ccc3c(c2)NC(=O)/C3=C\c2[nH]c(C)c(C(=O)N3CCOCC3)c2C)c(F)c1 | 16.8 | 10.8 | 24 | 102
COc1ccc(C(=O)NC(=O)Nc2cc3c(cc2F)/C(=C/c2[nH]c(C)c(C(=O)O)c2C)C(=O)N3)c(F)c1 | 35.9 | 17.8 | 28.6 | 76.3
CCN(CCO)CCCOc1ccc2c(Nc3cc(CC(=O)Nc4cccc(F)c4)[nH]n3)ncnc2c1 [DEFOSBARASERTIB] | 8.6 | 9.7 | 12.7 | 25.1
O=C(NC(=O)c1ccc(Cl)c(Cl)c1)Nc1ccc2c(c1)NC(=O)/C2=C\c1ccc[nH]1 | 31.6 | 29 | 35 | 90.9
COc1ccc(C(=O)NC(=O)Nc2ccc3c(c2)NC(=O)/C3=C\c2[nH]c(C)c(CC(=O)O)c2C)cc1 | 4.2 | 3.1 | 8.1 | 69
CN(C)c1ccc(C(=O)NC(=O)Nc2ccc3c(c2)NC(=O)/C3=C\c2ccc[nH]2)cc1 | 261 | 260 | 269 | 262
O=C(NC(=O)c1ccc(Cl)c(C(F)(F)F)c1)Nc1ccc2c(c1)NC(=O)/C2=C\c1ccc[nH]1 | 14.1 | 11.1 | 23.2 | 68.8
CCN(CC)CCNC(=O)c1c(C)[nH]c(/C=C2\C(=O)Nc3ccc(F)cc32)c1C [SUNITINIB] | 24.3 | 17.7 | 36.8 | 45.7
COc1ccc(C(=O)NC(=O)Nc2ccc3c(c2)NC(=O)/C3=C\c2[nH]c(C)c(CCC(=O)N3CCOCC3)c2C)c(F)c1 | 17.9 | 16.1 | 31.2 | 70.3
O=C(NC(=O)c1ccc(C(F)(F)F)cc1)Nc1ccc2c(c1)NC(=O)/C2=C\c1ccc[nH]1 | 191 | 196 | 293 | 326
Cc1ccc(C(=O)NC(=O)Nc2ccc3c(c2)NC(=O)/C3=C\c2ccc[nH]2)cc1 | 285 | 212 | 301 | 356
O=C(NC(=O)c1ccccc1F)Nc1ccc2c(c1)NC(=O)/C2=C\c1ccc[nH]1 | 234 | 232 | 268 | 331
CCN(CC)CCNC(=O)c1c(C)[nH]c(/C=C2\C(=O)Nc3cc(NC(=O)NC(=O)c4ccc(OC)cc4F)ccc32)c1C | 17.7 | 12.9 | 20.3 | 41.2
COc1ccc(C(=O)NC(=O)Nc2cc3c(cc2F)/C(=C/c2[nH]c(C)c(CCC(=O)O)c2C)C(=O)N3)c(F)c1 | 6.5 | 2.3 | 8.9 | 55.9
COc1ccc(C(=O)NC(=O)Nc2ccc3c(c2)NC(=O)/C3=C\c2[nH]c(C)c(C(=O)NCCN(C)C)c2C)c(F)c1 | 8.1 | 5.3 | 14.1 | 63.7
COc1ccc(C(=O)NC(=O)Nc2ccc3c(c2)NC(=O)/C3=C\c2[nH]c(C)c(CCC(=O)N3CCN(C)CC3)c2C)c(F)c1 | 11 | 9.2 | 15.7 | 65
O=C(NC(=O)c1ccc(Cl)cc1)Nc1ccc2c(c1)NC(=O)/C2=C\c1ccc[nH]1 | 19.3 | 19.1 | 21.6 | 81.2
COc1ccc(C(=O)NC(=O)Nc2ccc3c(c2)NC(=O)/C3=C\c2[nH]c(C)c(C(=O)N3CCN(C)CC3)c2C)c(F)c1 | 10.6 | 6.9 | 15.7 | 95.1
